In patent US20070203079A1, “Methods of using small molecule compounds for neuroprotection” (priority 2005, published 2007):
Counter-ions that a name gives are not always drawn.

What was measured:
Format in all cases: in vivo, C. elegans
[1] = test system: worms expressing Punc-54::Q82::GFP+Punc-54::torsinA with wt torsinA only; experiment: Protein aggregate assay in worms with wt torsinA only
Method: C elegans nematodes were grown at 20° C. on NGM plates as described by Brenner (Brenner, Genetics, 1974, 77: 71-94). Several transgenic C. elegans lines were used for primary screens of the Prestwick small molecule library. A transgenic worm line expressing Punc-54::Q82-GFP; with both wild type (“wt”) (Punc=54: :torsinA) or mutant (Punc-54::torsinA(ΔE)). Torsin-A expresses a phenotype that results in visible protein aggregation under fluorescent microscope. Transgenic worms were plated on drug plates and progeny were studied for a return to soluble protein.
Drugs were administered to C. elegans according to a standard procedure (Rand and Johnson, Methods Cell Biol, 1995, 48: 187-204), by mixing the solubilized drug with the agar medium on which the worms are grown. This mode of administration allows the continuous exposure of worms to the drug.
Each drug was first dissolved in an appropriate solvent, followed by adding the drug solution into pre-autoclaved media, with the volume of drug solution already taken into account. […]
The screening assays used to identify the compounds use protein aggregation readouts to determine the specificities of molecular action. […]
The methods for the aggregate analysis assay are described in Caldwell et al. (Hum Mol Genetics, 2003, 12(3): 307-319). […] MetaMorph Software (Universal Imaging Inc.) was used for pseudocoloration of images, image overlay, and aggregate size quantitation. For each worm line analyzed, average aggregate size was determined by capturing images of all aggregates in the posterior region of 30 L3-staged animals (for Q82::GFP aggregates) or all aggregates in 30 adult animals/day (for Q19::GFP analyses) at 1000× magnification. […]
To see the effect of the candidate compounds on suppressing protein misfolding and aggregation, five gravid adult worms were placed onto each drug plate and grown at 20° C. for approximately 3 days. Thirty Fl worms at L3 stage and young adult stage were counted for aggregate number.

[2] = test system: protein misfolding and aggregation in transgenic worms; experiment: Corrective assay of protein aggregation (drug from L2 stage onward); settings: drug exposure from L2 stage onward; scored at L3 and young adult
Method: To see the corrective effect of the candidate drug compounds on protein misfolding and aggregation, five gravid adult worms were placed onto a solvent control plate and grown at 20° C. for approximately 3 days. 35-40 Fl worms at L2 stage were picked and transferred to a drug plate. Thirty worms at L3 stage were counted for aggregate number 8 hours later. Thirty young adults were analyzed 32 hours later.
To calculate the scaled effectiveness of special regimen of drugs on worms based on standardized decrease in protein aggregates. The following formula was used: (A−B)/(A−C)×100%, where
A=number of aggregates for worms growing on solvent control plates
B=number of aggregates for worms grown on the specific drug plate for the entire life of the worms
C=number of aggregates for worms that received exposure from L2 stage (until adulthood)
If the regimen has no effect, the value would equal 0%. Conversely, if the regimen was as effective as raising the worms on the drug for their entire life, the value would equal 100%.

[3] = test system: Pdat-1::GFP+Pdat-1::torsinA (ΔE) worms (mutant torsinA); experiment: 6-OHDA dopaminergic neurodegeneration in worms with mutant torsinA
Method: (§1) C. elegans nematodes were grown at 25° C. on NGM plates as described by Brenner (Brenner, Genetics, 1974, 77: 71-94). Two transgenic C. elegans lines were used for primary screens of the Prestwick small molecule library. A transgenic worm line expressing Pdat-1::GFP; with both wild type (Pdat-1::torsinA) or mutant (Pdat-1:::torsinA(ΔE)). Torsin-A expresses a phenotype that results in visible neurodegeneration after treatment with 6-OHDA. Transgenic worms were plated on drug plates and progeny were studied for morphological changes in the 8 dopaminergic neurons present in C. elegans.
(§2) Drugs were administered to C. elegans according to a standard procedure (Rand and Johnson, Methods Cell Biol, 1995, 48: 187-204) by mixing the solubilized drug with the agar medium on which the worms are grown. […]
(§3) Age-synchronized worms were obtained by treating gravid adults with 2% sodium hypochlorite and 0.5M NaOH to isolate embryos (Lewis Fleming, 1995). […] The worms were then washed and spread onto NGM plates seeded with bacteria (OP50) and scored at time points ranging from 2 to 72 h after 6-OHDA exposure.
(§4) Immediately after 6-OHDA treatment, worms containing the transgenes were selected under a fluorescence dissecting microscope, based on the presence of GFP, and transferred to a fresh NGM plate seeded with OP50. […] For ease of analysis, only the four CEP DA neurons in the head of the worm were scored. […]

[4] = test system: Pdat-1::GFP+Pdat-1::torsinA worms (wt torsinA); experiment: 6-OHDA dopaminergic neurodegeneration in worms with wt torsinA
Method: as §1, §2, §3, §4

For C=N[C@@H](C(=O)N[C@@H]1C(=O)N2[C@@H]1SC(C)(C)[C@@H]2C(=O)O)c1ccccc1 [Compound 235, Metampicillin sodium salt], the “reduction of protein aggregation” value [1] was “reduced protein aggregation”, the “corrective effect on protein aggregation” value [2] was “seem to be beneficial” and the “neuroprotection against 6-OHDA insult” value [3] was “not protected”. For the same molecule, the “neuroprotection against 6-OHDA insult” value ([4]; listed as Metampicillin, sodium salt) was “provides neuroprotection” and the “neuroprotection against 6-OHDA insult” value ([4]; listed as metampicillin sodium salt) was “only afforded in Pdat-1::GFP+Pdat-1::torsinA worms expressing wt torsinA”.
